# According to publication PMC5218480 (PLoS ONE, 2017):
# System: MV-4-11 cells
# Assay: Gene expression microarray analysis (Affymetrix PrimeView) and GSEA
# Type: cell-based, human
# Design: RFU PODN (11730768_x_at) / Fold change /veh PODN (11730768_x_at) / RFU LINC00158 (11744669_a_at) / Fold change /veh LINC00158 (11744669_a_at) / RFU DUSP10 (11751237_a_at) / Fold change /veh DUSP10 (11751237_a_at) / RFU ID3 (11757404_x_at) / Fold change /veh ID3 (11757404_x_at) / RFU PLEKHG5 (11737974_s_at) / Fold change /veh PLEKHG5 (11737974_s_at) / RFU LRRC4B (11730491_at) / Fold change /veh LRRC4B (11730491_at) / RFU GIMAP4 (11747438_a_at) / Fold change /veh GIMAP4 (11747438_a_at) / RFU KRT8 (11758183_x_at) / Fold change /veh KRT8 (11758183_x_at) / RFU CNN1 (11734310_a_at) / Fold change /veh CNN1 (11734310_a_at) / RFU VPS37D (11726825_at) / Fold change /veh VPS37D (11726825_at) / RFU C10orf10 (11716522_x_at) / Fold change /veh C10orf10 (11716522_x_at) / RFU KIR2DL2 /// KIR2DL4 /// KIR2DL5A /// KIR2DL5B /// KIR2DS1 /// KIR2DS2 /// KIR2DS3 /// KIR2DS4 /// KIR3DL3 /// KIR3DL3 /// KIR3DS1 (11738374_at) / Fold change /veh KIR2DL2 /// KIR2DL4 /// KIR2DL5A /// KIR2DL5B /// KIR2DS1 /// KIR2DS2 /// KIR2DS3 /// KIR2DS4 /// KIR3DL3 /// KIR3DL3 /// KIR3DS1 (11738374_at) / RFU C1QL1 (11718748_at) / Fold change /veh C1QL1 (11718748_at) / RFU TMPRSS4 (11747572_a_at) / Fold change /veh TMPRSS4 (11747572_a_at) / RFU HAMP (11756126_x_at) / Fold change /veh HAMP (11756126_x_at) / RFU RNFT2 (11725882_a_at) / Fold change /veh RNFT2 (11725882_a_at) / RFU NR4A2 (11747474_a_at) / Fold change /veh NR4A2 (11747474_a_at) / RFU ABCC12 (11746883_a_at) / Fold change /veh ABCC12 (11746883_a_at) / RFU TMEM136 (11760407_x_at) / Fold change /veh TMEM136 (11760407_x_at) / RFU CLDN22 /// WWC2 (11732394_at) / Fold change /veh CLDN22 /// WWC2 (11732394_at) / RFU HLA-DPB1 (11760878_x_at) / Fold change /veh HLA-DPB1 (11760878_x_at) / RFU SPINT1 (11716480_a_at) / Fold change /veh SPINT1 (11716480_a_at) / RFU GAP43 (11754022_s_at) / Fold change /veh GAP43 (11754022_s_at) / RFU A4GNT (11735810_at) / Fold change /veh A4GNT (11735810_at) / RFU PRB3 (11715151_x_at) / Fold change /veh PRB3 (11715151_x_at) / RFU TUBB4B (11761932_at) / Fold change /veh TUBB4B (11761932_at) / RFU CAPN14 (11732068_a_at) / Fold change /veh CAPN14 (11732068_a_at) / RFU TMCC2 (11721928_a_at) / Fold change /veh TMCC2 (11721928_a_at) / RFU IRGQ (11745062_a_at) / Fold change /veh IRGQ (11745062_a_at) / RFU FAM174B (11720279_a_at) / Fold change /veh FAM174B (11720279_a_at) / RFU TMPRSS4 (11748680_a_at) / Fold change /veh TMPRSS4 (11748680_a_at) / RFU FAM212B (11763350_a_at) / Fold change /veh FAM212B (11763350_a_at) / RFU PLEKHG5 (11743358_a_at) / Fold change /veh PLEKHG5 (11743358_a_at) / RFU ZSCAN30 (11745921_a_at) / Fold change /veh ZSCAN30 (11745921_a_at) / RFU CMKLR1 (11741424_a_at) / Fold change /veh CMKLR1 (11741424_a_at) / RFU LOC101060620 /// MAPK8IP1 (11723275_at) / Fold change /veh LOC101060620 /// MAPK8IP1 (11723275_at) / RFU SPTSSB (11747773_x_at) / Fold change /veh SPTSSB (11747773_x_at) / RFU PRSS12 (11739890_at) / Fold change /veh PRSS12 (11739890_at) / RFU BIN1 (11741810_x_at) / Fold change /veh BIN1 (11741810_x_at) / RFU WNT11 (11732464_a_at) / Fold change /veh WNT11 (11732464_a_at) / RFU C10orf10 (11716521_a_at) / Fold change /veh C10orf10 (11716521_a_at) / RFU C5orf56 (11738089_at) / Fold change /veh C5orf56 (11738089_at) / RFU CYB561 (11721691_x_at) / Fold change /veh CYB561 (11721691_x_at) / RFU ANKRD19P (11752326_a_at) / Fold change /veh ANKRD19P (11752326_a_at) / RFU OR2T12 /// OR2T33 /// OR2T8 (11738714_s_at) / Fold change /veh OR2T12 /// OR2T33 /// OR2T8 (11738714_s_at) / RFU VCAN (11748164_a_at) / Fold change /veh VCAN (11748164_a_at) / RFU JSRP1 (11732532_at) / Fold change /veh JSRP1 (11732532_at) / RFU KRTAP10-11 (11738290_x_at) / Fold change /veh KRTAP10-11 (11738290_x_at) / RFU MYO3A (11730013_a_at) / Fold change /veh MYO3A (11730013_a_at) / RFU EBF3 (11725865_a_at) / Fold change /veh EBF3 (11725865_a_at) / RFU CAMK2N1 (11719241_x_at) / Fold change /veh CAMK2N1 (11719241_x_at) / RFU C5orf56 (11738088_a_at) / Fold change /veh C5orf56 (11738088_a_at) / RFU OLFML3 (11715873_a_at) / Fold change /veh OLFML3 (11715873_a_at) / RFU LOC100653217 /// NTM (11731650_a_at) / Fold change /veh LOC100653217 /// NTM (11731650_a_at) / RFU MAPK11 (11762145_a_at) / Fold change /veh MAPK11 (11762145_a_at) / RFU FIZ1 (11724087_x_at) / Fold change /veh FIZ1 (11724087_x_at) / RFU OASL (11726364_x_at) / Fold change /veh OASL (11726364_x_at) / RFU SOX15 (11748057_x_at) / Fold change /veh SOX15 (11748057_x_at) / RFU CD79A (11719716_a_at) / Fold change /veh CD79A (11719716_a_at) / RFU HIST1H1D (11736915_at) / Fold change /veh HIST1H1D (11736915_at) / RFU CASKIN2 (11723855_a_at) / Fold change /veh CASKIN2 (11723855_a_at) / RFU LOC730098 (11760151_x_at) / Fold change /veh LOC730098 (11760151_x_at) / RFU OR4N2 (11742367_at) / Fold change /veh OR4N2 (11742367_at) / RFU PRRT2 (11749266_a_at) / Fold change /veh PRRT2 (11749266_a_at) / RFU SNX32 (11753110_a_at) / Fold change /veh SNX32 (11753110_a_at) / RFU CDHR5 (11726645_a_at) / Fold change /veh CDHR5 (11726645_a_at) / RFU RCAN1 (11760418_a_at) / Fold change /veh RCAN1 (11760418_a_at) / RFU FAM167A (11723789_a_at) / Fold change /veh FAM167A (11723789_a_at) / RFU FAM26E (11764081_at) / Fold change /veh FAM26E (11764081_at) / RFU ISYNA1 (11749810_s_at) / Fold change /veh ISYNA1 (11749810_s_at) / RFU ACY1 (11761880_at) / Fold change /veh ACY1 (11761880_at) / RFU 11764098_at / Fold change /veh 11764098_at / RFU SAMD14 (11745864_x_at) / Fold change /veh SAMD14 (11745864_x_at) / RFU NPB (11741838_a_at) / Fold change /veh NPB (11741838_a_at) / RFU TMPRSS6 (11731388_a_at) / Fold change /veh TMPRSS6 (11731388_a_at) / RFU KRTAP10-2 (11738614_at) / Fold change /veh KRTAP10-2 (11738614_at) / RFU ARHGAP8 /// PRR5-ARHGAP8 (11727945_x_at) / Fold change /veh ARHGAP8 /// PRR5-ARHGAP8 (11727945_x_at) / RFU KRTAP5-7 /// NADSYN1 (11734609_at) / Fold change /veh KRTAP5-7 /// NADSYN1 (11734609_at) / RFU RASL12 (11751679_a_at) / Fold change /veh RASL12 (11751679_a_at) / RFU CDKN2B (11736163_a_at) / Fold change /veh CDKN2B (11736163_a_at) / RFU PRF1 (11729649_at) / Fold change /veh PRF1 (11729649_at) / RFU, ZNF638 /// ZNF638-IT1 / Fold change vs veh, ZNF638 /// ZNF638-IT1 / RFU, PANK3 / Fold change vs veh, PANK3 / RFU, SH3YL1 / Fold change vs veh, SH3YL1 / RFU, ZEB2 / Fold change vs veh, ZEB2 / RFU, NRIP1 / Fold change vs veh, NRIP1 / RFU, PTTG1IP / Fold change vs veh, PTTG1IP / RFU, CAPN2 / Fold change vs veh, CAPN2 / RFU, MED14 / Fold change vs veh, MED14 / RFU, SNORA58 / Fold change vs veh, SNORA58 / RFU, C1orf63 / Fold change vs veh, C1orf63 / RFU, LRRFIP1 / Fold change vs veh, LRRFIP1 / RFU, NDUFAF7 / Fold change vs veh, NDUFAF7 / RFU, SLC12A2 / Fold change vs veh, SLC12A2 / RFU, IBTK / Fold change vs veh, IBTK / RFU, ESF1 / Fold change vs veh, ESF1 / Fold change vs veh, TMEM50B / RFU, TAOK1 / Fold change vs veh, TAOK1 / RFU, ACBD3 / Fold change vs veh, ACBD3 / RFU, TMA16 / Fold change vs veh, TMA16 / RFU, RWDD3 / Fold change vs veh, RWDD3 / RFU, BCAT1 / Fold change vs veh, BCAT1 / RFU, EDEM3 / Fold change vs veh, EDEM3 / RFU, TMEM33 / Fold change vs veh, TMEM33 / RFU, WDR75 / Fold change vs veh, WDR75 / RFU, AHCTF1 / Fold change vs veh, AHCTF1 / RFU, TFRC / Fold change vs veh, TFRC / RFU, ZDHHC17 / Fold change vs veh, ZDHHC17 / RFU, NOM1 / Fold change vs veh, NOM1 / RFU, ARL8B / Fold change vs veh, ARL8B / RFU, ZBTB11 / Fold change vs veh, ZBTB11 / RFU, TAMM41 / Fold change vs veh, TAMM41 / RFU, KIAA1704 /// LOC100996395 / Fold change vs veh, KIAA1704 /// LOC100996395 / RFU, ING1 / Fold change vs veh, ING1 / RFU, TRMT61B / Fold change vs veh, TRMT61B / RFU, FUBP3 / Fold change vs veh, FUBP3 / RFU, TP53 / Fold change vs veh, TP53 / RFU, TNKS2 / Fold change vs veh, TNKS2 / RFU, ZFP14 / Fold change vs veh, ZFP14 / RFU, ACTR2 / Fold change vs veh, ACTR2 / RFU, PPP3R1 / Fold change vs veh, PPP3R1 / RFU, PIK3R1 / Fold change vs veh, PIK3R1 / RFU, HNRNPA1 / Fold change vs veh, HNRNPA1 / RFU, RNF170 / Fold change vs veh, RNF170 / RFU, ZNF28 / Fold change vs veh, ZNF28 / RFU, RNGTT / Fold change vs veh, RNGTT / RFU, OGT / Fold change vs veh, OGT / RFU, BRD1 / Fold change vs veh, BRD1 / RFU, MARS / Fold change vs veh, MARS / RFU, ZNF655 / Fold change vs veh, ZNF655 / RFU, FAHD1 / Fold change vs veh, FAHD1 / RFU, BDP1 / Fold change vs veh, BDP1 / RFU, LRRCC1 / Fold change vs veh, LRRCC1 / RFU, ARID1A / Fold change vs veh, ARID1A / RFU, ZNF146 / Fold change vs veh, ZNF146 / RFU, ZNF330 / Fold change vs veh, ZNF330 / RFU, GPN3 / Fold change vs veh, GPN3 / RFU, C9orf123 / Fold change vs veh, C9orf123 / RFU, N4BP2L2 / Fold change vs veh, N4BP2L2 / RFU, ARFIP1 / Fold change vs veh, ARFIP1 / RFU, FAM179B / Fold change vs veh, FAM179B / RFU, BCL10 / Fold change vs veh, BCL10 / RFU, UHRF1BP1L / Fold change vs veh, UHRF1BP1L / RFU, BET1 / Fold change vs veh, BET1 / RFU, CNOT2 / Fold change vs veh, CNOT2 / RFU, ZNF268 / Fold change vs veh, ZNF268 / Fold change vs veh, ZNF507 / RFU, DGCR2 / Fold change vs veh, DGCR2 / RFU, WDSUB1 / Fold change vs veh, WDSUB1 / Fold change vs veh, HSP90B1 /// MIR3652 / RFU, ADSS / Fold change vs veh, ADSS / RFU, GK / Fold change vs veh, GK / RFU, ZNF148 / Fold change vs veh, ZNF148 / RFU, TAF9 / Fold change vs veh, TAF9 / RFU, SLC1A5 / Fold change vs veh, SLC1A5 / RFU, SLMO2 / Fold change vs veh, SLMO2 / RFU, ABCC4 / Fold change vs veh, ABCC4 / RFU, LOC101060439 /// RAP1B / Fold change vs veh, LOC101060439 /// RAP1B / RFU, RFX7 / Fold change vs veh, RFX7 / RFU, GTPBP10 / Fold change vs veh, GTPBP10 / RFU, CNEP1R1 / Fold change vs veh, CNEP1R1 / RFU, BIVM-ERCC5 /// ERCC5 / Fold change vs veh, BIVM-ERCC5 /// ERCC5 / RFU, ILF3 / Fold change vs veh, ILF3 / RFU 11762660_at / Fold change /veh 11762660_at / RFU VCAN (11757783_s_at) / Fold change /veh VCAN (11757783_s_at) / RFU DDX43 (11728927_at) / Fold change /veh DDX43 (11728927_at) / RFU KRT8 (11758188_x_at) / Fold change /veh KRT8 (11758188_x_at) / RFU NKD1 (11759106_at) / Fold change /veh NKD1 (11759106_at) / RFU SRD5A1 (11742802_a_at) / Fold change /veh SRD5A1 (11742802_a_at) / RFU TPSAB1 /// TPSB2 (11721975_s_at) / Fold change /veh TPSAB1 /// TPSB2 (11721975_s_at) / RFU GSTM3 (11746129_a_at) / Fold change /veh GSTM3 (11746129_a_at) / RFU IL23R (11737362_x_at) / Fold change /veh IL23R (11737362_x_at) / RFU TMEM51 (11727254_a_at) / Fold change /veh TMEM51 (11727254_a_at) / RFU PIWIL2 (11732686_x_at) / Fold change /veh PIWIL2 (11732686_x_at) / RFU ORM1 (11744905_x_at) / Fold change /veh ORM1 (11744905_x_at) / RFU CCDC152 (11743942_at) / Fold change /veh CCDC152 (11743942_at) / RFU ECM1 (11717891_a_at) / Fold change /veh ECM1 (11717891_a_at) / RFU IL23R (11748794_a_at) / Fold change /veh IL23R (11748794_a_at) / RFU TNFAIP8L3 (11732012_x_at) / Fold change /veh TNFAIP8L3 (11732012_x_at) / RFU MBOAT4 (11741988_at) / Fold change /veh MBOAT4 (11741988_at) / RFU 11764193_at / Fold change /veh 11764193_at / RFU TMEM53 (11763286_at) / Fold change /veh TMEM53 (11763286_at) / RFU MAGEB2 (11727129_at) / Fold change /veh MAGEB2 (11727129_at) / RFU TMEM200A (11744735_a_at) / Fold change /veh TMEM200A (11744735_a_at) / RFU CCDC152 (11751479_a_at) / Fold change /veh CCDC152 (11751479_a_at) / RFU FAM211A (11726209_a_at) / Fold change /veh FAM211A (11726209_a_at) / RFU RGS16 (11746705_a_at) / Fold change /veh RGS16 (11746705_a_at) / RFU VCAN (11755009_s_at) / Fold change /veh VCAN (11755009_s_at) / RFU RHOB (11743442_s_at) / Fold change /veh RHOB (11743442_s_at) / RFU RGS16 (11720943_a_at) / Fold change /veh RGS16 (11720943_a_at) / RFU RGS16 (11720944_at) / Fold change /veh RGS16 (11720944_at) / RFU, VPS4B / Fold change vs veh, VPS4B / RFU, CREB1 / Fold change vs veh, CREB1 / RFU, DNAJC13 / Fold change vs veh, DNAJC13 / RFU, GNAQ / Fold change vs veh, GNAQ / RFU, CDK5R1 / Fold change vs veh, CDK5R1 / RFU, ZRANB3 / Fold change vs veh, ZRANB3 / RFU, CUL4A / Fold change vs veh, CUL4A / RFU, CCNY / Fold change vs veh, CCNY / RFU, UFL1 / Fold change vs veh, UFL1 / RFU, COG3 / Fold change vs veh, COG3 / RFU, DIAPH2 / Fold change vs veh, DIAPH2 / RFU, SKA2 / Fold change vs veh, SKA2 / RFU, AFF3 / Fold change vs veh, AFF3 / RFU, LMF1 / Fold change vs veh, LMF1 / RFU, IPO11 / Fold change vs veh, IPO11 / RFU, DFFB / Fold change vs veh, DFFB / RFU, FOXP1 / Fold change vs veh, FOXP1 / RFU, CARD8 / Fold change vs veh, CARD8 / RFU, STRN3 / Fold change vs veh, STRN3 / RFU, ADK / Fold change vs veh, ADK / RFU, RASSF2 / Fold change vs veh, RASSF2 / RFU, WIPF1 / Fold change vs veh, WIPF1 / RFU, LARP1B / Fold change vs veh, LARP1B / RFU, RASA1 / Fold change vs veh, RASA1 / RFU, RB1 / Fold change vs veh, RB1 / RFU, PPFIA1 / Fold change vs veh, PPFIA1 / RFU, MAT2A / Fold change vs veh, MAT2A / RFU, CCT5 / Fold change vs veh, CCT5 / RFU, WDR92 / Fold change vs veh, WDR92 / RFU, CUX1 / Fold change vs veh, CUX1 / RFU, TTC7A / Fold change vs veh, TTC7A / RFU, TMEM135 / Fold change vs veh, TMEM135 / RFU, DEPTOR / Fold change vs veh, DEPTOR / RFU, CPM / Fold change vs veh, CPM / RFU, DNAJB6 / Fold change vs veh, DNAJB6 / RFU, CACNA2D3 / Fold change vs veh, CACNA2D3 / RFU, DTX4 / Fold change vs veh, DTX4 / RFU, TFCP2 / Fold change vs veh, TFCP2 / RFU, GMCL1 /// GMCL1P1 / Fold change vs veh, GMCL1 /// GMCL1P1 / RFU, AEBP2 / Fold change vs veh, AEBP2 / RFU, SNHG1 /// SNORD22 /// SNORD25 /// SNORD26 /// SNORD27 /// SNORD28 /// SNORD29 /// SNORD31 / Fold change vs veh, SNHG1 /// SNORD22 /// SNORD25 /// SNORD26 /// SNORD27 /// SNORD28 /// SNORD29 /// SNORD31 / Fold change (Aza/veh), C12orf56 (ProbeSet 11735607_a_at) / Fold change (ACY-1035/veh), C12orf56 (ProbeSet 11735607_a_at) / Fold change (Aza/veh), FGFR1OP (ProbeSet 11751329_s_at) / Fold change (ACY-1035/veh), FGFR1OP (ProbeSet 11751329_s_at) / Fold change (Aza/veh), VPS36 (ProbeSet 11739960_a_at) / Fold change (ACY-1035/veh), VPS36 (ProbeSet 11739960_a_at) / RFU SYPL1 (11715823_x_at) / Fold change /veh SYPL1 (11715823_x_at) / RFU IGFBP7 (11715501_s_at) / Fold change /veh IGFBP7 (11715501_s_at) / RFU REEP3 (11722064_at) / Fold change /veh REEP3 (11722064_at) / RFU IGLL1 (11728026_x_at) / Fold change /veh IGLL1 (11728026_x_at): dose or concentration left out as unconfirmed
# Settings: ProbeSet 11722463_a_at; LIST B
compound,measurement,value
Nc1ncn([C@@H]2O[C@H](CO)[C@@H](O)[C@H]2O)c(=O)n1 [azacitidine],"RFU, TNKS2",47.93 RFU
